# Literature values, collected in patent publication US9943402B2, “Micropatterned intraocular implant” (InSight Innovations, LLC, priority 2008, dated 2018).
# Test system: posterior capsule opacification (PCO)
# Details: topical treatment after phacoemulsification
row,SMILES,inhibition of PCO (in words)
1,O=C(O)Cc1ccccc1Nc1c(Cl)cccc1Cl [diclofenac],do not appear to inhibit PCO
2,COc1ccc2c(c1)c(CC(=O)O)c(C)n2C(=O)c1ccc(Cl)cc1 [indomethacin],do not appear to inhibit PCO
